# ChEMBL document CHEMBL1201862, “PubChem BioAssay data set” (2004)
# “And” between values parts separate entries of the source, which are not always exact repeats. Equal entries are not always repeated. The source made the active and inactive calls.
# Legend:
# [1] = biological target: Glycogen synthase kinase-3 beta (Homo sapiens, UniProt P49841); assay: Inhibition of Human GSK-3 beta Activity Measured in Biochemical System Using Microfluidics - 2063-05_Inhibitor_Dose_DryPowder_Activity. [Related pubchem assays (depositor defined):AID2709]
# Sequence of Glycogen synthase kinase-3 beta (P49841 whole entry): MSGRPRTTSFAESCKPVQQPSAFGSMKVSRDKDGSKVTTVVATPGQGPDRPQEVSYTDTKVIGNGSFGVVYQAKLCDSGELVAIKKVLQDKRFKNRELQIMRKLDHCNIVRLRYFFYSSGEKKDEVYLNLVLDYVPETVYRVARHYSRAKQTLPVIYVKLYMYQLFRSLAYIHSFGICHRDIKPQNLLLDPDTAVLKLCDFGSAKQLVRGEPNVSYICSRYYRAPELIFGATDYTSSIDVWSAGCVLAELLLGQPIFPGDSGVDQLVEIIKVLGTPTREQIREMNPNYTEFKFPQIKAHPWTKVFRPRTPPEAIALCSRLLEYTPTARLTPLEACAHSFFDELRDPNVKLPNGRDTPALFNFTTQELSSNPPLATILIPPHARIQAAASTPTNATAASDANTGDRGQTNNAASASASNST
# [2] = biological target: Glycogen synthase kinase-3 alpha (Homo sapiens, UniProt P49840); assay: Inhibition of Human GSK-3 alpha Activity Measured in Biochemical System Using Microfluidics - 2063-06_Inhibitor_Dose_DryPowder_Activity. [Related pubchem assays (depositor defined):AID2709]
# Sequence of Glycogen synthase kinase-3 alpha (P49840 whole entry): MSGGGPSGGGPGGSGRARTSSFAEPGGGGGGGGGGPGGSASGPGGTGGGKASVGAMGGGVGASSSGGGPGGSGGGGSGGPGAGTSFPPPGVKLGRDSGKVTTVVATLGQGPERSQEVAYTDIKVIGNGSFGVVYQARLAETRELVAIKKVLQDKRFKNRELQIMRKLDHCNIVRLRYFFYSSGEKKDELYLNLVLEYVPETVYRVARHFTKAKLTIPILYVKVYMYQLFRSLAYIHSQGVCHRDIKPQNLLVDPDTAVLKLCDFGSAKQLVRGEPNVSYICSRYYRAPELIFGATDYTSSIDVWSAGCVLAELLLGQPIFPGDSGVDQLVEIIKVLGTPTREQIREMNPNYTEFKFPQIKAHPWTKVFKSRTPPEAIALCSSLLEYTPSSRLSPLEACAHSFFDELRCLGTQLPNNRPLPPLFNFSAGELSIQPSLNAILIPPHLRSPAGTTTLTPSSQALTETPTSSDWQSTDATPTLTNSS
# [3] = test system: INS1; assay: INS-1E mitochondrial potential rescue under cytokines – cell-based, JC-1 fluorescence ratio, dry powder, dose response (AID 488931); assay type: functional; details: Rattus norvegicus
# [4] = test system: INS1; assay: beta-cell survival under cytokine stress – INS-1E, ATP luminescence, dry powder, dose response (AID 488844); assay type: functional, cell-based; details: Rattus norvegicus
# [5] = suppression of NO production in INS-1E cells – cell-based, Griess absorbance, dry powder, set 3, dose response (AID 488870); assay type: functional; details: Rattus norvegicus
# [6] = test system: INS1; assay: INS-1E mitochondrial potential loss inhibitors – cell-based, JC-1 fluorescence, dry powder, set 2, dose response (AID 488867); assay type: functional; details: Rattus norvegicus
# [7] = test system: Streptococcus; assay: GAS UMAA2166 growth inhibition – luminescence, BacTiterGlo, counter-screen for streptokinase expression inhibitor project, dose response (AID 1915); assay type: functional, organism-based;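 further: potency for reduction of bacterial viability or growth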
# [8] = fluconazole-exposed Candida albicans growth modulators – fluorescence, retest, confirmation (AID 2467); assay type: functional, cell-based
# [9] = test system: Streptococcus sp. 'group A'; assay: Streptococcus pyogenes SK(-)GAS viability under kanamycin – luminescence, BacTiterGlo, confirmation, counter-screen for streptokinase expression inhibitor project, dose response (AID 1900); assay type: functional, organism-based
# [10] = biological target: Serine/threonine-protein phosphatase (Candida dubliniensis (strain CD36 / CBS 7987 / NCPF 3949 / NRRLY-17841) (Yeast), UniProt B9W6M3); assay: blockers of CaCl2-induced CDRE-lacZ signaling – S. cerevisiae, luminescence, secondary, dose response (AID 2388); assay type: functional, cell-based;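 further: yeast reporter cells carrying a calcineurin-responsive lacZ construct stimulated with calcium chloride; luminescent beta-galactosidase reporter signal in whole cells rather than isolated phosphatase activity; potency for inhibition where a drop in reporter signal means calcineurin blockade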
# Sequence of Serine/threonine-protein phosphatase (B9W6M3 whole entry): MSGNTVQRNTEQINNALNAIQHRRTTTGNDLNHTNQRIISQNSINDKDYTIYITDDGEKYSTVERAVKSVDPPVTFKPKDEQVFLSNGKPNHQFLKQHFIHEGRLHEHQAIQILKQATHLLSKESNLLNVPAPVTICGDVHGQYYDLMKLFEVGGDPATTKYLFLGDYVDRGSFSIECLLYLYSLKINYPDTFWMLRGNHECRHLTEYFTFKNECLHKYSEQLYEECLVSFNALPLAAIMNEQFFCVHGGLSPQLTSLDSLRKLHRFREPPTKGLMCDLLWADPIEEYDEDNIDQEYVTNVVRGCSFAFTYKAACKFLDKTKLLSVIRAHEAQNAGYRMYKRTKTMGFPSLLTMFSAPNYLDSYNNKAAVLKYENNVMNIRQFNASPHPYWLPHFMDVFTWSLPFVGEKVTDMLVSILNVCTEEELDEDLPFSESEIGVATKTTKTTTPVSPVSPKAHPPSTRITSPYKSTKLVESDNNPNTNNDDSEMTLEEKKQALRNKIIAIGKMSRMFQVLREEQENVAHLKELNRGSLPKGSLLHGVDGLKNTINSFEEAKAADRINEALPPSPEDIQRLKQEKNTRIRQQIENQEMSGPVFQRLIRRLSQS
# [11] = biological target: ATP-dependent molecular chaperone HSP82 (Candida albicans (strain WO-1) (Yeast), UniProt C4YTQ8); assay: steroid-induced GRE reporter decrease in yeast – S. cerevisiae, luminescence, Hsp90 inhibitor project, dose response (AID 2400); assay type: functional, cell-based;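 further: beta-galactosidase luminescence from glucocorticoid response element reporter as proxy for Hsp90 function; inhibitor potency where signal loss means Hsp90 inhibition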
# Sequence of ATP-dependent molecular chaperone HSP82 (C4YTQ8 whole entry): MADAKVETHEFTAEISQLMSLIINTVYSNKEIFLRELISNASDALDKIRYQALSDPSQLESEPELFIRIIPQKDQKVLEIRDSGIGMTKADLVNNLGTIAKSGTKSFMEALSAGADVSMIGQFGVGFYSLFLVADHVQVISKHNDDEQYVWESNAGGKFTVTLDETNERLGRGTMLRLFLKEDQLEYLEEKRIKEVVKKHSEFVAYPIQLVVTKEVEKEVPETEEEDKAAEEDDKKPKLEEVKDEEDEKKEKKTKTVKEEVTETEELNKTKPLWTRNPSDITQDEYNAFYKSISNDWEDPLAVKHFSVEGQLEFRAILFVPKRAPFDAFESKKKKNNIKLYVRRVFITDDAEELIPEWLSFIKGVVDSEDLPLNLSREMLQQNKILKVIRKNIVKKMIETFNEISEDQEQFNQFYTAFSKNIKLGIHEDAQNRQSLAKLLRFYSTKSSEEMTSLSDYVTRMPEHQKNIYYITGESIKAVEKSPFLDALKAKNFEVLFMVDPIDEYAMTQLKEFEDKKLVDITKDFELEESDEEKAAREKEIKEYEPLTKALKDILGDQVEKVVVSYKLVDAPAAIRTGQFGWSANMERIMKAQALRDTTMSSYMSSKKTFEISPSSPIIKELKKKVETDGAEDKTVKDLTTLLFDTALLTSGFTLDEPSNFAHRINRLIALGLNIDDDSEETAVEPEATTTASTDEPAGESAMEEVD
# [12] = NIH-3T3 fibroblast cytotoxicity, dose response, cytotoxicity control, cell-based, fluorescence, Alamar Blue, secondary assay (AID 2327); assay type: functional;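 further: NIH-3T3 mouse fibroblasts cultured with fluconazole at 8 µg/mL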
# [13] = biological target: Albumin (Bos taurus, UniProt P02769); assay: Counterscreen for inhibitors of T-cell receptor (TCR)-CD3 interaction: Fluorescence-based biochemical high throughput dose response assay to identify inhibitors of T-cell receptor (TCR)-CD3 interaction using a TAMRA-labeled BSA probe.; assay type: functional
# Sequence of Albumin (P02769 whole entry): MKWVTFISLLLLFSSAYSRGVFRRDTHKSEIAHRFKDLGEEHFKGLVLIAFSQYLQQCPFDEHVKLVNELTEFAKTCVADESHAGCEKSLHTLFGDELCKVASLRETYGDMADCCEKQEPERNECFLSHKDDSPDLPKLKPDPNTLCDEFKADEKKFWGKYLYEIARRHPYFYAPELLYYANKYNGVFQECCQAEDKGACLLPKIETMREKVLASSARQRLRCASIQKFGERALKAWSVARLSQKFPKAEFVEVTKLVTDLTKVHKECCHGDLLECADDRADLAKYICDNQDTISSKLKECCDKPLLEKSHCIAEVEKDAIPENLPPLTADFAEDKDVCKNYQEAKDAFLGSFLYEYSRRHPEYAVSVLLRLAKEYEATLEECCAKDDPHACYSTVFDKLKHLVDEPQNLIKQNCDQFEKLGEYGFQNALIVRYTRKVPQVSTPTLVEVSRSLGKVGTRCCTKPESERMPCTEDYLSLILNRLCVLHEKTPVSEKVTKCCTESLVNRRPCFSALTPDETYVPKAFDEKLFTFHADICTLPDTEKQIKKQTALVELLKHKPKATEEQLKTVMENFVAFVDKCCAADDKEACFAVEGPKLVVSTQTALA
# [14] = test system: A-375; assay: MITF: Counter assay: A375 proliferation Measured in Cell-Based System Using Plate Reader - 2084-03_Inhibitor_Dose_DryPowder_Activity. [Related pubchem assays (depositor defined):AID488944]; assay type: functional; details: Homo sapiens
# [15] = test system: A-375; assay: proliferation inhibition in MITF-low A375 cells – cell-based, cherry-pick samples, set 2, counter-screen for MITF modulator project, dose response (AID 540335); assay type: functional; details: Homo sapiens
# [16] = biological target: Voltage-gated inwardly rectifying potassium channel KCNH2 (Homo sapiens, UniProt Q12809); details: Potency;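 further: confirmatory quantitative high-throughput screen measuring inhibition of hERG channel activity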
# Sequence of Voltage-gated inwardly rectifying potassium channel KCNH2 (Q12809 whole entry): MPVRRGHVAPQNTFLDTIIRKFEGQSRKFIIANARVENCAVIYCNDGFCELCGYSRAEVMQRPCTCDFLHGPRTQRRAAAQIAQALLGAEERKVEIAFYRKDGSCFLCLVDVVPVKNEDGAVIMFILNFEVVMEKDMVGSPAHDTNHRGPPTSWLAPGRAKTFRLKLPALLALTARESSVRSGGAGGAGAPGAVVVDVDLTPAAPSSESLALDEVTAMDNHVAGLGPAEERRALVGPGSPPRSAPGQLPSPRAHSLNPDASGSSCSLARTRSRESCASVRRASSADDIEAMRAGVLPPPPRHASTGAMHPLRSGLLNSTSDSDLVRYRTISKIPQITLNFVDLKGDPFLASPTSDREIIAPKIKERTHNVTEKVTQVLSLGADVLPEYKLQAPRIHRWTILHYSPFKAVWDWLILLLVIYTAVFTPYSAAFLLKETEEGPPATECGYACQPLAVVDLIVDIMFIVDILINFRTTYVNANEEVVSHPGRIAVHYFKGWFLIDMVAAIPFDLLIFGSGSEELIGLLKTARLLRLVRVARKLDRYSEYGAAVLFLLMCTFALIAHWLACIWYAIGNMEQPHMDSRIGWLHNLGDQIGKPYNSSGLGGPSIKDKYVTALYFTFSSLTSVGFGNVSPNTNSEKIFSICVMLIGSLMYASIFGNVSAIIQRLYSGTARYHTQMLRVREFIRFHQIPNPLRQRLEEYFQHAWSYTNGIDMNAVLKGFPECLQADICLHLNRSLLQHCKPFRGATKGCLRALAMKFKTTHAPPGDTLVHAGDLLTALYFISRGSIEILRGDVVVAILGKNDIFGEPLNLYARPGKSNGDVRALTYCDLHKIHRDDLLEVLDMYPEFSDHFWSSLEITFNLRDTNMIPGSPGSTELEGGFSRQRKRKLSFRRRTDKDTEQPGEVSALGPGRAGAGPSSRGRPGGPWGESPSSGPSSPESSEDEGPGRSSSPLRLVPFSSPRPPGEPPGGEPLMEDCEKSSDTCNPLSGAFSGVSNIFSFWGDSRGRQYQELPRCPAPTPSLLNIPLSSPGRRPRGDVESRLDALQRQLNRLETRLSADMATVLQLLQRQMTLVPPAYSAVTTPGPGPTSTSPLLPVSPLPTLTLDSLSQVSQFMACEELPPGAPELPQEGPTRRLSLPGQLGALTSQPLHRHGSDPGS
smiles,measurement,setting,value
O/N=C/c1cn(-c2ccccc2)nc1-c1cccnc1,AC50,[1],0.246 µM (active)
same,AC50,[2],0.828 µM (active)
C[C@@H]1CN([C@@H](C)CO)C(=O)c2cccc(NC(=O)Nc3cccc4ccccc34)c2O[C@H]1CN(C)S(=O)(=O)c1ccc2ncsc2c1,AC50,[3],176 µM (active)
same,AC50,[4],24.9 µM (active)
same,AC50,[5],34.6 µM (active)
same,AC50,[6],38.8 µM (active)
Cc1cc(C(=O)N/N=C/c2cc(Cl)cc([N+](=O)[O-])c2O)c2ccccc2n1,EC50,[7],1.51 µM (active)
same,EC50,[8],14.7 µM (active)
same,EC50,[9],1.03 µM (active)
same,EC50,[10],> 180 µM (inactive)
same,EC50,[11],17.5 µM (active)
same,EC50,[12],34.3 µM (active)
same,IC50,[13],> 94.1 µM (inactive)
C/C(=N\Nc1cc(N2CCOCC2)ncn1)c1ccccc1,AC50,[14],> 35 µM (active)
same,AC50,[15],> 35 µM (active)
ClC(Cl)=C(c1ccc(Cl)cc1)c1ccc(Cl)cc1 [DICHLORODIPHENYLDICHLOROETHYLENE],AC50,[16],15.8 µM (inconclusive) and 20 µM (inconclusive)
